Test results reported in patent US8722849B2, “Polypeptides” (Novo Nordisk A/S, priority 2011, dated 2014).
Values after ≈ are worked out from the molar mass of the structure shown. Like-named read-outs stand apart in the source and are kept apart here. Starred links: 1 amine or outer side, 2 acyl side, 3 side chain; linkers in the order of their positions; H or OH if unused. Positions of bridges follow the written chain, without caps; N, C: chain ends. Residues, ends and D or L forms follow the SMILES beside them. *: point of attachment. C20 diacid = O=C(O)CCCCCCCCCCCCCCCCCCC(=O)*; γGlu = O=C(O)[C@H](CCC(=O)[*:2])N[*:1]

Tests used:
[1] = Assay (IV) determination of solubility; assay type: physicochemical
Summary of the method: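 Polypeptide in water (~500 nmol/ml stock) was mixed 1:1 with 100 mM buffers from pH 3.0 to 8.0 (glycylglycine pH 3.0–5.0; bistrispropane pH 6.0–8.0). After 18 hours at room temperature, samples were centrifuged and the polypeptide remaining in solution was quantified by HPLC.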

[2] = biological target: T1, human calcitonin receptor (Homo sapiens, UniProt P30988); experiment: Assay (II)a functional CRE-luciferase assay, human calcitonin receptor; assay type: cell-based; settings: Table 7; human calcitonin (CTa) receptor
T1 construct: expressed in transfected cells; host or cells: BHK570
T1 sequence (P30988 25-474): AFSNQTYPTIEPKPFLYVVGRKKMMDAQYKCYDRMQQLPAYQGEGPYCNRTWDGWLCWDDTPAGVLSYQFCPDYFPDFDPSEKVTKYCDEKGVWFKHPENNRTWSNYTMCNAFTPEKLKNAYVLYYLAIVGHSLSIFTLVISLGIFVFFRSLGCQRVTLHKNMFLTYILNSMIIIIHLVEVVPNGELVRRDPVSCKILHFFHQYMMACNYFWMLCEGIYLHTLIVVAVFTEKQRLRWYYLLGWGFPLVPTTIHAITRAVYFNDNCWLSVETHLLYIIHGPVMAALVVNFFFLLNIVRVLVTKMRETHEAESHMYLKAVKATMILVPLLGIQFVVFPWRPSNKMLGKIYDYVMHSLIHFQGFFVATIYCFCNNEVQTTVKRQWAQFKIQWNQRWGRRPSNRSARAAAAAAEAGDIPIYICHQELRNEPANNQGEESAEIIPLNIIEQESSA
Text: (§1) 1. Luciferase Assay Outline
(§2) Activation of calcitonin and amylin (coexpression of calcitonin receptor and receptor activity modifying proteins (RAMP)) receptors lead to increased intracellular concentrations of cAMP. Consequently, transcription is activated by promoters containing multiple copies of the cAMP response element (CRE). It is thus possible to measure amylin activity by the use of a CRE luciferase reporter gene introduced into BHK cells also expressing calcitonin or amylin receptors.
(§3) A BHK570 cell line was stably transfected with the human calcitonin receptor and a CRE-responsive luciferase reporter gene. The cell line was further transfected with RAMP-3, using standard methods. This turns the calcitonin receptor into an amylin 3(a) receptor. Methotrexate, Neomycin, and Hygromycin are selection markers for luciferase, the calcitonin receptor, and RAMP-3, respectively.
(§4) To perform activity assays, BHK calcitonin (a) receptor- or amylin 3(a)-receptor/CRE-luc cells were seeded in white 96 well culture plates at a density of about 20.000 cells/well. […] Further, 50 μl/well of standard or sample in assay buffer were added. After 3 hours incubation at 37° C. and 5% CO2, the assay medium with standard or sample were removed and replaced by 100 μl/well PBS. Further, 100 μl/well LucLite™ was added. The plates were sealed and incubated at room temperature for 30 minutes. Finally, luminescence was measured on a TopCounter (Packard) in SPC (single photon counting) mode.

[3] = biological target: T2, human amylin receptor (amylin 3(a) receptor: human calcitonin receptor + RAMP-3) (Homo sapiens, UniProt O60896+P30988); experiment: Assay (II)a functional CRE-luciferase assay, human amylin receptor; assay type: cell-based; settings: Table 2; BHK amylin 3(a)-receptor/CRE-luc cells
T2 construct: expressed in transfected cells; host or cells: BHK570
T2 sequence (P30988 25-474): T1 sequence (P30988 25-474)
T2 sequence (O60896 24-148 partner): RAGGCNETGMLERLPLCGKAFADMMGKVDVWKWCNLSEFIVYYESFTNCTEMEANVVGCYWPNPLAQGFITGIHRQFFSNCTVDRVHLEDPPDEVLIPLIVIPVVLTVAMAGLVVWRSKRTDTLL
Text: as §1, §2, §3, §4

[4] = bistrispropane buffer, pH 6, pH 6.0, read-out: Solubility pH 6.0
[5] = bistrispropane buffer, pH 7.5, pH 7.5, read-out: Solubility pH 7.5
[6] = bistrispropane buffer, pH 8, pH 8.0, read-out: Solubility pH 8.0
[7] = glycylglycine buffer, pH 3, pH 3.0, read-out: Solubility pH 3.0
[8] = glycylglycine buffer, pH 4, pH 4.0, 18 hours at room temperature, Table 2, read-out: Solubility pH 4.0
[9] = glycylglycine buffer, pH 4, pH 4.0, read-out: Solubility pH 4.0

| SMILES | solubility at 18 h [1, 4] | solubility at 18 h ([1]; bistrispropane buffer, pH 6.5, pH 6.5, read-out: Solubility pH 6.5) | solubility at 18 h ([1]; bistrispropane buffer, pH 7, pH 7.0, 18 hours at room temperature, Table 3, read-out: Solubility pH 7.0) | solubility at 18 h ([1]; bistrispropane buffer, pH 7, pH 7.0, read-out: Solubility pH 7.0) | solubility at 18 h [1, 5] | solubility at 18 h [1, 6] | solubility at 18 h [1, 7] | solubility at 18 h [1, 8] | solubility at 18 h [1, 9] | EC50 [2] | EC50 [3] | solubility at 18 h ([1]; glycylglycine buffer, pH 5, pH 5.0, read-out: Solubility pH 5.0) | solubility at 18 h ([1]; pH 6.5, read-out: Solubility pH 6.5) | solubility at 18 h ([1]; pH 7.0, read-out: Solubility pH 7.0) |
| --- | --- | --- | --- | --- | --- | --- | --- | --- | --- | --- | --- | --- | --- | --- |
| CC[C@H](C)[C@H](NC(=O)[C@@H]1CCCN1C(=O)CNC(=O)[C@H](Cc1ccccc1)NC(=O)[C@H](CCC(N)=O)NC(=O)[C@H](CCC(N)=O)NC(=O)[C@H](CO)NC(=O)[C@H](CO)NC(=O)[C@H](CCCNC(=N)N)NC(=O)[C@H](Cc1c[nH]cn1)NC(=O)[C@H](CC(C)C)NC(=O)[C@H](Cc1ccccc1)NC(=O)[C@H](CCC(=O)O)NC(=O)[C@H](C)NC(=O)[C@H](CC(C)C)NC(=O)[C@H](CCCNC(=N)N)NC(=O)[C@H](CCC(N)=O)NC(=O)[C@@H](NC(=O)[C@H](C)NC(=O)[C@@H]1CSSC[C@H](NC(=O)CC[C@H](NC(=O)CCCCCCCCCCCCCCCCCCC(=O)O)C(=O)O)C(=O)NCC(=O)N[C@@H]([C@@H](C)O)C(=O)N[C@@H](C)C(=O)N[C@@H]([C@@H](C)O)C(=O)N1)[C@@H](C)O)C(=O)N[C@@H](CC(C)C)C(=O)N1CCC[C@H]1C(=O)N1CCC[C@H]1C(=O)N[C@H](C(=O)N[C@@H](CCC(=O)O)C(=O)N[C@H](C(=O)NCC(=O)N[C@@H](CO)C(=O)NCC(=O)N[C@H](C(=O)N[C@@H](Cc1ccc(O)cc1)C(N)=O)[C@@H](C)O)C(C)C)[C@@H](C)O [Example 4, N-alpha-[(S)-4-Carboxy-4-(19-carboxynonadecanoylamino)butyryl]-[des1,Gly3,Glu14,His17,Arg18,Gln21,Gln22,Glu31,Gly35]-pramlintide] ({C20 diacid-γGlu}-CGTATCATQRLAEFLHRSSQQFGPILPPTEVGSGTY-NH2; disulfide 1-6 (inferred)) | 42 µM (≈ 180 µg/mL) | 82 µM (≈ 351 µg/mL) | 146 µM (≈ 624 µg/mL) | 146 µM (≈ 624 µg/mL) | 183 µM (≈ 782 µg/mL) | 190 µM (≈ 812 µg/mL) | > 200 µM | 120 µM (≈ 513 µg/mL) | 120 µM (≈ 513 µg/mL) | 0.284 nM | 0.253 nM |  |  |  |
| CC(C)C[C@H](NC(=O)[C@H](CCCNC(=N)N)NC(=O)[C@H](CCC(N)=O)NC(=O)[C@@H](NC(=O)[C@H](C)NC(=O)[C@@H]1CSSC[C@H](NC(=O)[C@H](Cc2cnc[nH]2)NC(=O)CC[C@H](NC(=O)CCCCCCCCCCCCCCCCCCC(=O)O)C(=O)O)C(=O)N[C@@H](CC(N)=O)C(=O)N[C@@H]([C@@H](C)O)C(=O)N[C@@H](C)C(=O)N[C@@H]([C@@H](C)O)C(=O)N1)[C@@H](C)O)C(=O)N[C@@H](C)C(=O)N[C@@H](CCC(=O)O)C(=O)N[C@@H](Cc1ccccc1)C(=O)N[C@@H](CC(C)C)C(=O)N[C@@H](Cc1cnc[nH]1)C(=O)N[C@@H](CCCNC(=N)N)C(=O)N[C@@H](CO)C(=O)N[C@@H](CO)C(=O)N[C@@H](CC(N)=O)C(=O)N[C@@H](CC(N)=O)C(=O)N[C@@H](Cc1ccccc1)C(=O)NCC(=O)N[C@@H](C)C(=O)N1CCC[C@H]1C(=O)N[C@@H](CC(C)C)C(=O)N[C@@H](CO)C(=O)N[C@@H](CO)C(=O)N[C@H](C(=O)N[C@@H](CC(N)=O)C(=O)N[C@H](C(=O)NCC(=O)N[C@@H](CO)C(=O)N[C@@H](CC(N)=O)C(=O)N[C@H](C(=O)N[C@@H](Cc1ccc(O)cc1)C(N)=O)[C@@H](C)O)C(C)C)[C@@H](C)O [Example 6, N-alpha-[(S)-4-Carboxy-4-(19-carboxynonadecanoylamino)butyryl]-[His1,Glu14,His17,Arg18,Ala25,Pro26,Ser28,Ser29]-pramlintide] ({C20 diacid-γGlu}-HCNTATCATQRLAEFLHRSSNNFGAPLSSTNVGSNTY-NH2; disulfide 2-7) | 12 µM (≈ 53.1 µg/mL) |  |  |  | 18 µM (≈ 79.6 µg/mL) | 48 µM (≈ 212 µg/mL) | > 200 µM | 163 µM (≈ 721 µg/mL) | 163 µM (≈ 721 µg/mL) | 0.24 nM | 0.115 nM | 168 µM (≈ 743 µg/mL) | 4 µM (≈ 17.7 µg/mL) | 7 µM (≈ 31 µg/mL) |
